Test results as given in ChEMBL document CHEMBL1201862, “PubChem BioAssay data set” (2004).
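Briefly, cells in 96-well plates were exposed to five compound concentrations for 48 h, and endpoints were estimated by linear interpolation. At the GI50, growth is halved.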 Activity calls are given as the source filed them. No stated cut-off is given here; in the data, active = GI50 up to about 1.1 µM and inactive = higher.

Legend:
Assay in all cases: inhibition of tumour cell growth, NCI panel, 48 h
HL-60 = test system: HL-60
KM12 = test system: KM12
UO-31 = test system: UO-31
SK-OV-3 = test system: SK-OV-3
A498 = test system: A498
K562 = test system: K562
SF-268 = test system: SF-268
SK-MEL-5 = test system: SK-MEL-5
OVCAR-3 = test system: OVCAR-3
RPMI-8226 = test system: RPMI-8226
U-251 = test system: U-251
Malme-3M = test system: Malme-3M
HCT-15 = test system: HCT-15
SN12C = test system: SN12C
OVCAR-8 = test system: OVCAR-8

| Structure (SMILES) | GI50 (HL-60) | GI50 (KM12) | GI50 (UO-31) | GI50 (SK-OV-3) | GI50 (A498) | GI50 (K562) | GI50 (SF-268) | GI50 (SK-MEL-5) | GI50 (OVCAR-3) | GI50 (RPMI-8226) | GI50 (U-251) | GI50 (Malme-3M) | GI50 (HCT-15) | GI50 (SN12C) | GI50 (OVCAR-8) |
| --- | --- | --- | --- | --- | --- | --- | --- | --- | --- | --- | --- | --- | --- | --- | --- |
| CCNC(=O)COc1ccc(Br)cc1Br | > 100 µM (inactive) | > 100 µM (inactive) | > 100 µM (inactive) | > 100 µM (inactive) | > 100 µM (inactive) | > 100 µM (inactive) | > 100 µM (inactive) | 86.5 µM (inactive) | > 100 µM (inactive) | > 100 µM (inactive) | > 100 µM (inactive) | > 100 µM (inactive) | > 100 µM | > 100 µM (inactive) |  |
| Cc1cccc(C)c1NC(=O)C(=O)CC(=O)CO | > 100 µM (inactive) | > 100 µM (inactive) | > 100 µM (inactive) | > 100 µM (inactive) | > 100 µM (inactive) | > 100 µM (inactive) | > 100 µM (inactive) | > 100 µM (inactive) | > 100 µM (inactive) | > 100 µM (inactive) | > 100 µM (inactive) | > 100 µM (inactive) | > 100 µM | > 100 µM (inactive) | > 100 µM (inactive) |
| Cc1ccc(NC(=O)CC(=O)N2N=C(N(CCC#N)c3cccc(C)c3)CC2c2ccccc2)cc1 (stereo not drawn) | > 100 µM (inactive) | > 100 µM (inactive) | > 100 µM (inactive) | > 100 µM (inactive) |  | > 100 µM (inactive) | > 100 µM (inactive) | > 100 µM (inactive) | > 100 µM (inactive) | > 100 µM (inactive) | > 100 µM (inactive) | > 100 µM (inactive) | > 100 µM | > 100 µM (inactive) | > 100 µM (inactive) |
| c1cnc2c(c1)-n1cccc1C1(CCSC1)NN2 (stereo not drawn) | > 100 µM (inactive) | > 100 µM (inactive) | > 100 µM (inactive) |  |  | > 100 µM (inactive) | > 100 µM (inactive) | > 100 µM (inactive) | > 100 µM (inactive) | > 100 µM (inactive) | > 100 µM (inactive) | > 100 µM (inactive) | > 100 µM | > 100 µM (inactive) | > 100 µM (inactive) |
| CC(C)N1C(C)[C@@H](c2ccccc2)O[P@@]1(=O)CC1=CCCCC1 (stereo partly drawn) | 24.1 µM (inactive) | > 100 µM (inactive) | > 100 µM (inactive) | > 100 µM (inactive) | > 100 µM (inactive) | 48.6 µM (inactive) | > 100 µM (inactive) | 55.6 µM (inactive) | 79.3 µM (inactive) | 49.1 µM (inactive) | > 100 µM (inactive) | > 100 µM (inactive) | > 100 µM | > 100 µM (inactive) | > 100 µM (inactive) |
| Nc1ccc(N)c2c1C(=O)c1c(N)ccc(N)c1C2=O | 45.6 µM (inactive) | 60.8 µM (inactive) | 41.8 µM (inactive) | > 74.5 µM (inactive) | 61 µM (inactive) | > 92.9 µM (inactive) | 45.7 µM (inactive) | 37.8 µM (inactive) | 25.1 µM (inactive) | > 57.3 µM (inactive) | 50 µM (inactive) | > 100 µM (inactive) | > 66.5 µM | > 63.5 µM (inactive) | 58.9 µM (inactive) |
| COC(=O)C(Cc1nc2ccccc2nc1O)C(=O)C(=O)Nc1ccc(OC)cc1[N+](=O)[O-] (stereo not drawn) | > 100 µM (inactive) | > 100 µM (inactive) | > 100 µM (inactive) | > 100 µM (inactive) |  | > 100 µM (inactive) | > 100 µM (inactive) | > 100 µM (inactive) | > 100 µM (inactive) | > 100 µM (inactive) | > 100 µM (inactive) | > 100 µM (inactive) | > 100 µM | > 100 µM (inactive) | > 100 µM (inactive) |
| N#CC1(c2nc3ccccc3o2)C(=O)C(=O)N(c2ccc(Cl)c(Cl)c2)C(=O)C1=O | 26 µM (inactive) | > 100 µM (inactive) | > 100 µM (inactive) |  |  | 71 µM (inactive) | > 100 µM (inactive) | > 100 µM (inactive) | > 100 µM (inactive) | > 100 µM (inactive) |  | > 100 µM (inactive) | 74.6 µM | > 100 µM (inactive) | > 100 µM (inactive) |
| COc1cc(C)c(C)c(OC(=O)c2c(C)c(C)c(OC)c(C)c2OC)c1C | 10 µM (inactive) | 3.31 µM (inactive) | 32.4 µM (inactive) | 7.19 µM (inactive) | 16.6 µM (inactive) | 3.83 µM (inactive) | 11.8 µM (inactive) | 5.02 µM (inactive) | 2.02 µM (inactive) | 13.6 µM (inactive) | 3.74 µM (inactive) | 6.9 µM (inactive) | 3.68 µM | 15.7 µM (inactive) | 19.5 µM (inactive) |
| CCOC(=O)C1(Br)C(c2ccccc2)NC(=O)N(C2OC(COC(=O)c3ccccc3)C(OC(=O)c3ccccc3)C2OC(=O)c2ccccc2)C1(C)Br (stereo not drawn) | 0.0565 µM (active) | 21.6 µM (inactive) | 25.9 µM (inactive) | 42.9 µM (inactive) | 38.9 µM (inactive) | 8.91 µM (inactive) | > 55.5 µM (inactive) | 15.2 µM (inactive) | 29.6 µM (inactive) | 9.31 µM (inactive) | 27.8 µM (inactive) | 23.8 µM (inactive) | 15.8 µM | 34 µM (inactive) | 17.3 µM (inactive) |
| N#CC12CCC(O)C(CC1)C2=O (stereo not drawn) | > 100 µM (inactive) | > 100 µM (inactive) | > 100 µM (inactive) | > 100 µM (inactive) | > 100 µM (inactive) | > 100 µM (inactive) | > 100 µM (inactive) | > 100 µM (inactive) | > 100 µM (inactive) | 26.9 µM (inactive) | > 100 µM (inactive) | > 100 µM (inactive) | > 100 µM | > 100 µM (inactive) | > 100 µM (inactive) |
| Cc1cc2c(cc1CO)N1Cc3cc(C)c(CO)cc3N(C2)C1 | > 100 µM (inactive) | > 100 µM (inactive) |  | > 100 µM (inactive) |  | > 100 µM (inactive) | > 100 µM (inactive) | > 100 µM (inactive) | > 100 µM (inactive) | > 100 µM (inactive) | > 100 µM (inactive) |  |  | > 100 µM (inactive) | > 100 µM (inactive) |
| Cc1ccc(NC(=O)C(=O)C(C#N)c2nc(-c3ccc(-c4ccccc4)cc3)cs2)c(C)c1 (stereo not drawn) |  |  | > 100 µM (inactive) | > 100 µM (inactive) | > 100 µM (inactive) |  | > 100 µM (inactive) | > 100 µM (inactive) | > 100 µM (inactive) | > 100 µM (inactive) | 47.3 µM (inactive) | > 100 µM (inactive) | > 100 µM | > 100 µM (inactive) | > 100 µM (inactive) |
| CC(C)OP(=O)(OC(C)C)/C(=N/Nc1ccc([N+](=O)[O-])cc1)NCCN/C(=N\Nc1ccc([N+](=O)[O-])cc1)P(=O)(OC(C)C)OC(C)C | 3.94 µM (inactive) | 3.8 µM (inactive) | 4.4 µM (inactive) |  | 3.7 µM (inactive) | 3.29 µM (inactive) | > 100 µM (inactive) | 6.22 µM (inactive) | 3.62 µM (inactive) | 3.51 µM (inactive) | 3.3 µM (inactive) | 8.83 µM (inactive) | 4.61 µM | 4.07 µM (inactive) | 4.55 µM (inactive) |
| OCC1CC2C=CCC(C2)C1 (stereo not drawn) | > 100 µM (inactive) | > 100 µM (inactive) | > 100 µM (inactive) | > 100 µM (inactive) | > 100 µM (inactive) | > 100 µM (inactive) | > 100 µM (inactive) | > 100 µM (inactive) | > 100 µM (inactive) | > 100 µM (inactive) | > 100 µM (inactive) | > 100 µM (inactive) |  | > 100 µM (inactive) | > 100 µM (inactive) |
| NC1CC(n2ccc(=O)[nH]c2=O)OC1C(O)CO (stereo not drawn) | > 100 µM (inactive) | > 100 µM (inactive) | > 100 µM (inactive) | > 100 µM (inactive) |  | > 100 µM (inactive) | > 100 µM (inactive) | > 100 µM (inactive) | > 100 µM (inactive) | > 100 µM (inactive) | > 100 µM (inactive) | > 100 µM (inactive) | > 100 µM | > 100 µM (inactive) | > 100 µM (inactive) |
| COc1nc(NC2OCC(O)C(O)C2O)c(NC2OCC(O)C(O)C2O)c(=O)n1C (stereo not drawn) | > 100 µM (inactive) | > 100 µM (inactive) | > 100 µM (inactive) | > 100 µM (inactive) | > 100 µM (inactive) | > 100 µM (inactive) | > 100 µM (inactive) |  | > 100 µM (inactive) | > 100 µM (inactive) | > 100 µM (inactive) | > 100 µM (inactive) | > 100 µM | > 100 µM (inactive) | > 100 µM (inactive) |
| CCOC(=O)N[C@@H]1C2CC(=O)C(O2)[C@@H]1OC (stereo partly drawn) | > 100 µM (inactive) | > 100 µM (inactive) | > 100 µM (inactive) | > 100 µM (inactive) |  | > 100 µM (inactive) | > 100 µM (inactive) | > 100 µM (inactive) | > 100 µM (inactive) | > 100 µM (inactive) | > 100 µM (inactive) | > 100 µM (inactive) | > 100 µM | > 100 µM (inactive) | > 100 µM (inactive) |
| NCC(=O)OCN1C(=O)C2C3C=CC(C2C1=O)C1C2C(=O)N(COC(=O)CN)C(=O)C2C31 (stereo not drawn) | 12.4 µM (inactive) | 22.2 µM (inactive) | 31.9 µM (inactive) | 76.9 µM (inactive) | > 100 µM (inactive) | 30.5 µM (inactive) | 20.9 µM (inactive) | 25.5 µM (inactive) | 35.7 µM (inactive) | 32.1 µM (inactive) | 22 µM (inactive) |  | 19.1 µM | 23.3 µM (inactive) | 20.7 µM (inactive) |
| COC(=O)C(=O)C1CCCCC(C2=NC3NN=C(N)N3C2=O)C1=O (stereo not drawn) | > 100 µM (inactive) | > 100 µM (inactive) | > 100 µM (inactive) | > 100 µM (inactive) | > 100 µM (inactive) | > 100 µM (inactive) | > 100 µM (inactive) | > 100 µM (inactive) | > 100 µM (inactive) |  | > 100 µM (inactive) | > 100 µM (inactive) | > 100 µM | > 100 µM (inactive) | > 100 µM (inactive) |
